Values after ≈ are worked out from the molar mass of the structure shown.
conditions: buffer; pH 7.4; 200.0 µM

| SMILES | solubility kinetic |
| --- | --- |
| Cc1cc(NC(=O)CSc2nc3cc(Cl)ccc3o2)no1 | 0.5 µg/mL (≈ 1.54 µM) |
| O=c1ccn(CCc2c[nH]c3ccccc23)c2c1CCCC2 | > 43.9 µg/mL |
| Cn1cc(S(=O)(=O)NC2CCCC2)c(=O)n(C)c1=O | > 43.1 µg/mL |
| O=C1CC2(CC(c3ccc(Cl)cc3)=NO2)C(=O)N1c1ccccc1 (stereo not given) | 48.9 µg/mL (≈ 144 µM) |
| COc1ccccc1NC(=O)COC(=O)C12CC3CC(CC(Br)(C3)C1)C2 | 5.5 µg/mL (≈ 13 µM) |
| Cn1cccc1/C=N/NC(=O)CSc1nc2ccccc2[nH]1 | > 47 µg/mL |
| Cc1ccc(S(=O)(=O)Oc2ccccc2/C=C2/SC(=O)NC2=O)cc1 | 52.7 µg/mL (≈ 140 µM) |
| COc1cc(C2SCC(=O)N2Cc2ccccc2)ccc1O (stereo not given) | > 47.3 µg/mL |
| O=C(CCN1C(=O)c2ccccc2C1=O)NCc1cccc(Cl)c1 | 32.4 µg/mL (≈ 94.5 µM) |
| COc1ccc(NC(=O)c2ccc(F)c(F)c2)c2ccccc12 | < 0.7 µg/mL |
| CCCCNC(=O)[C@@H]1CSC2c3ccccc3C(=O)N21 (stereo not given in full) | > 43.6 µg/mL |
| Cc1ccc(-c2nc3ccccc3c(=O)n2O)cc1 | 24.1 µg/mL (≈ 95.5 µM) |
| COc1ccc(-c2nc3n(c(=O)c2C#N)CCS3)cc1OC | 11.9 µg/mL (≈ 37.7 µM) |
| O=C(NCc1ccccn1)Nc1ccc(F)cc1F | > 39.5 µg/mL |
| C#CCn1c(=O)cc(C)c2ccccc21 | > 29.6 µg/mL |
| NCc1oc(-c2ccccc2)cc1C(=O)O | 22.2 µg/mL (≈ 102 µM) |
| COC(=O)/C=C/COc1ccccc1[N+](=O)[O-] | 17.9 µg/mL (≈ 75.5 µM) |
| Cc1csc(NS(=O)(=O)c2ccc(Cl)cc2)n1 | 42.4 µg/mL (≈ 147 µM) |
| Cc1cc(/C(N)=N/OC(=O)Nc2ccccc2)no1 | 15.7 µg/mL (≈ 60.3 µM) |

| SMILES | solubility kinetic |
| --- | --- |
| Cc1ccc(C)c(C(=O)OCC(=O)N(C)c2ccccc2)c1 | 38 µg/mL (≈ 128 µM) |
| CCc1ccc(Nc2ncnc3nc[nH]c23)cc1 | > 35.9 µg/mL |
| C=C(C)CNC(=O)c1ccc2nc(Cc3ccc(OC)cc3)oc2c1 | 40.5 µg/mL (≈ 120 µM) |
| COc1ccc(C(C)=O)cc1COC(=O)c1cccnc1SC | < 0.7 µg/mL |
| COc1cccc(C=Nc2ccc3c(c2)CCC3)c1O | 26.8 µg/mL (≈ 100 µM) |
| CCN(C(=O)COC(=O)C1=COCCO1)c1ccccc1 | > 43.7 µg/mL |
| O=C(c1ccco1)N1CCN(C23CC4CC(CC(C4)C2)C3)CC1 | > 47.2 µg/mL |
| COC(=O)/C(C#N)=C/c1ccc(C)o1 | 20.7 µg/mL (≈ 108 µM) |
| O=C1NC(=O)/C(=C\c2ccc(O)cc2O)S1 | > 35.6 µg/mL |
| Cc1ccc2nsnc2c1NC(=O)Cc1ccc(Cl)cc1 | 0.7 µg/mL (≈ 2.2 µM) |
| COc1ccc(CCNC(=O)c2cc(C3CC3)on2)cc1OC | > 47.5 µg/mL |
| O=C(Cn1cc(/C=C\[N+](=O)[O-])c2ccccc21)Nc1ccccc1 | 2.2 µg/mL (≈ 6.85 µM) |
| COCC1CCN(Cc2nc(COc3ccccc3)no2)C1 (stereo not given) | 37.2 µg/mL (≈ 123 µM) |
| C#CCOc1ccc2c(c1)c(C(C)=O)c(C)n2Cc1ccccc1 | 1 µg/mL (≈ 3.15 µM) |
| CSCC(CO)NS(=O)(=O)c1ccc(C)cc1 (stereo not given) | > 41.3 µg/mL |
| Cl.Clc1ccc(CNCC2CCCO2)c(Cl)c1 (stereo not given) | 37 µg/mL |
| Cc1cc2c(c(=O)o1)C(CCC1CCCCC1)C(C#N)=C(N)O2 (stereo not given) | 8 µg/mL (≈ 25.4 µM) |
| O=C1CCCc2c1nc(-c1ccccc1F)n2O | > 36.9 µg/mL |
| Cc1ccc(-c2nc(C=Nc3cccc(C)c3)c(O)o2)cc1 | 0.7 µg/mL (≈ 2.39 µM) |

| SMILES | solubility kinetic |
| --- | --- |
| CCCC(=O)Nc1nc2c(C)c(Cl)ccc2s1 | < 0.3 µg/mL |
| COc1ccc(CNC(=O)COC(=O)c2cccs2)cc1 | 29.1 µg/mL (≈ 95.3 µM) |
| Cc1csc(NC(=O)CSc2nccn2Cc2ccco2)n1 | 47.7 µg/mL (≈ 143 µM) |
| Cc1c(C(=O)Nc2ccccc2)c2ccc(C(F)(F)F)cc2n1O | 1 µg/mL (≈ 2.99 µM) |
| COc1ccc(NC(=O)COC(=O)CCc2nc3ccccc3c(=O)[nH]2)cc1Cl | 59.7 µg/mL (≈ 144 µM) |
| CC(C)N(Cc1cc2ccccc2[nH]c1=O)C(=O)c1cccc([N+](=O)[O-])c1 | 3.4 µg/mL (≈ 9.31 µM) |
| CCOC(=O)C1(C)NC(c2ccco2)C2C(=O)N(C)C(=O)C21 (stereo not given) | > 45.9 µg/mL |
| CNc1oc(-c2cccs2)nc1S(=O)(=O)c1ccccc1 | 4.2 µg/mL (≈ 13.1 µM) |
| CCOc1ccc(NC(=S)NCc2cccnc2)cc1 | > 43.1 µg/mL |
| COC(=O)c1[nH]c2c(c1C)C(=O)CC(c1ccc(OC)c(OC)c1)C2 (stereo not given) | 2.1 µg/mL (≈ 6.12 µM) |
| O=C(NCCc1ccccc1)c1ccc2c(c1)OCO2 | 39.6 µg/mL (≈ 147 µM) |
| Nc1ccc2nc(CCCCCCc3nc4ccc(N)cc4[nH]3)[nH]c2c1 | > 52.3 µg/mL |
| O=C1C2C3C=CC(C3)C2C(=O)N1Nc1ccccc1 (stereo not given) | > 38.1 µg/mL |
| CCOc1ccc(C(=O)N[C@H](C(=O)Nc2ccc(S(=O)(=O)Nc3nccs3)cc2)C(C)C)cc1 | 62.3 µg/mL (≈ 124 µM) |
| Cc1cc(C(=O)NC(Cc2c[nH]c3ccccc23)C(=O)O)c(C)o1 (stereo not given) | 41.6 µg/mL (≈ 127 µM) |
| Cc1ccc(O)c(CNc2nc3ccccc3n2C(C)C)c1 | 0.6 µg/mL (≈ 2.03 µM) |
| O=c1[nH]c(Cc2cccc(C(F)(F)F)c2)nc2ccccc12 | < 0.3 µg/mL |
| CCOC(=O)c1c(C)[nH]c(C)c1C(=O)COC(=O)CSc1ccc(C)cc1 | > 58.4 µg/mL |

Second part, the molecule after the results:

| solubility kinetic | SMILES |
| --- | --- |
| 0.6 µg/mL (≈ 1.9 µM) | CC(C)(C)c1ccc(C(=O)NC(=S)NCc2ccco2)cc1 |
| 36.5 µg/mL (≈ 134 µM) | Cc1nc(C(F)(F)F)ccc1C(=O)N1CCCCC1 |
| 4.2 µg/mL (≈ 14.1 µM) | Cc1cc(F)ccc1S(=O)(=O)NCC1CC2CCC1C2 (stereo not given) |
| > 37.8 µg/mL | CC(=O)Nc1ccc(C(=S)NCCCO)cc1 |
| 34.4 µg/mL (≈ 104 µM) | COc1ccc(CCN2C(=O)CSC2c2ccc(F)cc2)cc1 (stereo not given) |
| > 64.3 µg/mL | CC(=O)c1ccc(S(=O)(=O)NCC(=O)NC(c2nc3ccccc3[nH]2)C(C)C)cc1 (stereo not given) |
| 53.2 µg/mL (≈ 103 µM) | CN(Cc1c(F)cccc1Cl)C(=O)c1ccc(NC(=O)CC2SC(N3CCCCC3)=NC2=O)cc1 (stereo not given) |
| > 41.9 µg/mL | Cc1c(C)n(Cc2ccccc2)c2ccc(C(=O)O)cc12 |
| 13.5 µg/mL (≈ 47.6 µM) | Fc1cccc(CN2CCC(Cc3ccccc3)CC2)c1 |
| 5.2 µg/mL (≈ 16.1 µM) | CC(C)(C)NC(=S)N1CCC(C(=O)c2ccc(F)cc2)CC1 |
| 30.4 µg/mL (≈ 117 µM) | Cc1ccc(C(=O)NCC(=O)NC2CCCC2)cc1 |
| > 53.5 µg/mL | COc1ccc(OC)c(CNC(=O)C2CCN(S(C)(=O)=O)CC2)c1 |
| 22.8 µg/mL (≈ 81.3 µM) | CCc1ccccc1NC(=O)N1CCCc2ccccc21 |
| > 42.2 µg/mL | O=C(O)CCC(=O)NNC(=O)c1ccc([N+](=O)[O-])cc1 |
| 33.9 µg/mL (≈ 117 µM) | CC1CCC(NS(=O)(=O)c2ccc(Cl)nc2)CC1 (stereo not given) |
| > 40.4 µg/mL | CCNc1ccc(S(=O)(=O)N2CCCCC2)cn1 |
| 31.6 µg/mL (≈ 109 µM) | COC(=O)c1ccccc1NC(=O)CN1CCCCCC1 |
| > 46.5 µg/mL | O=C(O)c1ccc(/C=N/Nc2ncc(Cl)cc2Cl)cc1 |
| 0.4 µg/mL (≈ 1.4 µM) | COc1ccc(-c2cc(C(=O)NC3CCCC3)no2)cc1 |
| > 52.6 µg/mL | CC(=C1C(=O)c2ccccc2C1=O)N1CCN(c2ccc(F)cc2)CC1 |
| 1.6 µg/mL (≈ 5.75 µM) | Nc1ccc(NC(=O)NC2CCCCC2)cc1[N+](=O)[O-] |
| 44.3 µg/mL (≈ 135 µM) | CS(=O)(=O)N1CCC(C(=O)Nc2cccc([N+](=O)[O-])c2)CC1 |
| > 57 µg/mL | Cc1cccnc1NC(=O)c1ccc(Cl)c(S(=O)(=O)N2CCCC2)c1 |
| 16.4 µg/mL (≈ 49.6 µM) | Cc1ccc(NC(=O)C2CCN(S(C)(=O)=O)CC2)cc1Cl |
| 40.5 µg/mL (≈ 125 µM) | CC(=O)N1CCN(c2ccc(NC(=O)c3ccccc3)cc2)CC1 |
| 49.2 µg/mL (≈ 124 µM) | CC(=O)c1ccc(OCC(=O)N2CCCC2c2ccc3c(c2)OCCCO3)cc1 (stereo not given) |
| 38.7 µg/mL (≈ 139 µM) | CCCc1cnc(N2CCN(C(=S)NC)CC2)nc1 |
| > 36.6 µg/mL | O=C(NCCc1ccc(F)cc1)c1ccncc1 |
| 3.9 µg/mL (≈ 11.8 µM) | COc1cc(OC)cc(C(=O)NC2CCSc3ccccc32)c1 (stereo not given) |
